Test results: patent US11192859B2, “Quinoline compounds as modulators of RAGE activity and uses thereof” (NEW YORK UNIVERSITY, priority 2016, dated 2021)

What was measured:
[1] = molecular target: binding of RAGE tail (ctRAGE) to DIAPH1 (Homo sapiens (Human), UniProt Q15109); assay: Primary screen (high-throughput): blocking of GFP RAGE tail binding to DIAPH1; details: for inhibition at 10 µM: Table 1; for inhibition at 12.5 µM: Table 2
Description: […] Compounds that reduced binding of RAGE tail (ctRAGE) by at least 50% were then selected and subjected to 4-point dose response (10 uM, 1 uM, 0.1 uM and 0.01 uM).
• Step 1. Add 50 μl anti-DIAPH1 (1:160 dilution in 0.1M NaHCO3 pH 9.6)/well. Incubate overnight at 4° C. Day 2 • Step 2. Use the plate washer to aspirate anti-DIAPH11 and wash plates 4× with PBS 100 μl per well per wash. • Step 3. Add 180 μl 3% BSA in 1×PBS. Incubate for 1.5 hrs at room temperature Step 4. Use the plate washer to aspirate the blocking solution and wash 5× with PBS 300 μl per well. • Step 5. Add 50 μl of DIAPH1 containing lysate (85 μg) and incubate at RT for 3 hours. • Step 6. Aspirate the lysate and wash the plate 5×(100 μl) on the plate washer. • Step 7. Add 25 μl PBS to the wells. • Step 8. Add 0.5 μL compound per well. • Step 9. Add 24.5 μL GFP RAGE tail (125 nM) into each well for 2 hrs at room temperature. • Step 10. Aspirate and wash 5× with PBS (100 μL) on the plate washer. • Step 11. Add 100 μl PBS in each well. • Step 12. Detection: Read on fluorescence plate reader excitation […] and 485 nm emission
Compounds that blocked the binding of RAGE tail to DIAPH1 by 50% or more were subjected to 4 point dose response: 10 μM, 1 μM, 0.1 μM and 0.01 μM.

[2] = test system: Murine vascular smooth muscle cells (SMCs); assay: Smooth muscle cell migration assay (wounding assay), RAGE ligand CML-AGE; type: cell-based; parameters: key to SMC migration Assay, IC50 (nM): ****: No inhibition or bad fit or inhibition out of range; details: CML-AGE 10 μg/ml, 7 h; for IC50: Mus musculus, read-out: SMC migration Assay, IC50
Description: FIG. 4 depicts effects of compounds on RAGE ligand-stimulated migration of murine aortic smooth muscle cells (SMCs). Migration of SMCs after incubation with the indicated RAGE inhibitor compounds or the parent molecule (“C12”) quinolone from the Chem-Bridge library was assessed. SMCs were grown to confluence and serum-starved overnight. The following morning, serum free media was removed and compounds were added (1 μM). Immediately following the addition of compounds, the monolayer was wounded using a p200 pipette tip and allowed to incubate for 1.5 h. Following this incubation, compounds were removed and fresh media containing RAGE ligand, CML-AGE (10 μg/ml), was added for 7 h. All images were measured at TO and T7 h and an area ingrowth of effective migrating cells was calculated. Each compound was tested in three independent wells and each well was photographed in 3 separate locations for a total of 9 images used in assessing area ingrowth. Error bars represent SEM. * indicates p<0.05 comparing CML-AGE vs. CML-AGE and compound treatment and # indicates p<0.001 comparing CML-AGE vs. serum free medium (SFM) vehicle. Note that SFM is the vehicle into which the RAGE ligand, CML-AGE, is added for testing the effect of RAGE ligand.
Murine vascular smooth muscle cells (SMCs) were cultured from the aortas of 10-week old male mice using a modification of the procedure of Travo and Barret^17. SMCs were cultured following an explant protocol in accordance with institutional guidelines. Wild-type murine aortic vascular SMCs were isolated and used between passages 8 to 12. Migration in response to the RAGE ligand CML-AGE (CML, 10 μg/ml) or a general effector, not a RAGE ligand, PDGF-BB, 10 ng/ml (R&D systems, Minneapolis, Minn., USA) was assessed with a wounding assay. Cells were grown to confluence in 12-well plates and starved overnight. The following morning, serum free media was removed and compounds were added. Immediately following the addition of compounds, the monolayer was wounded using a p200 pipette tip and the compounds were allowed to incubate for 1.5 h. Following this incubation, all compounds were removed and fresh media containing RAGE ligand or general effector, PDGF-BB, was added for 7 h. Cells were maintained at 37° C. and 5% CO2. Images were obtained at TO and T7. Each image was measured and an area ingrowth of effective migrating cells was calculated. The SMC migration assay data for representative compounds, Compounds 229 and 247, is depicted in FIGS. 5a and 5b, respectively.

ctRAGE = ctRAGE (Homo sapiens (Human), UniProt Q15109); assay: Fluorescence binding assay (native tryptophan fluorescence titration); parameters: key to Fluorescent Binding Assay, Kd (nM): ***: No binding; details: 10 nM ctRAGE, pH 7.0, 5% DMSO; for Kd: read-out: Fluorescent Binding Assay, Kd
Description: Native tryptophan fluorescence experiments were conducted using a Horiba Jobin Yvon Fluorolog spectrofluorometer. 1 mM of compound was dissolved in 10 mM phosphate buffer [pH 7.0] and 50% DMSO. ctRAGE was bacterially expressed and purified as described^1. 10 nM ctRAGE solution was individually titrated from 0.1 nM-100 μM with the compounds in 100 μL of 10 mM phosphate buffer [pH 7.0] and 5% DMSO. The excitation and emission wavelengths were 280 nm and 352 nm, respectively. Dissociation constants, Kd, were estimated from the changes in peak fluorescence intensities as a function of the free compound concentration by using Prism 5 software (GraphPad). Data were fit to the equation, (F−F0)/Fmax=[compound]/(Kd+[compound]) where F is the fluorescence intensity at a given compound concentration, F0 is the fluorescence intensity of the blank, and Fmax is the maximum fluorescence intensity.

Chain of ctRAGE (Q15109 364-404): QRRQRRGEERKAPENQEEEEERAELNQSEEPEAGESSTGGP
Chain of binding of RAGE tail (ctRAGE) to DIAPH1 (Q15109 364-404): as above

| inhibition at 10 µM [1] | IC50 [2] | Kd (ctRAGE) | SMC migration Assay, IC50 (nM) [2] | Compound | also measured |
| --- | --- | --- | --- | --- | --- |
| 27% | – | – | – | COC(=O)c1cc(-c2ccccc2)nc2cc(C)ccc12 [Compound 2] | – |
| 34% | – | – | – | CC(=O)Nc1ccc(-c2cc(C(=O)N3CCOCC3)c3ccccc3n2)cc1 [Compound 5, N-(4-(4-(Morpholine-4-carbonyl)quinolin-2-yl)phenyl)acetamide] | – |
| 36% | – | – | – | CCCNC(=O)c1cc(-c2ccc(NC(=O)CC)cc2)nc2ccccc12 [Compound 3] | – |
| 28% | – | – | – | COC(=O)c1cc(-c2ccccc2C)nc2ccccc12 [Compound 10] | – |
| 29% | – | – | – | CC(=O)Nc1ccc(-c2cc(C(=O)N3CCCC3)c3ccccc3n2)cc1 [Compound 7] | – |
| 25% | – | – | – | CC(=O)Nc1ccc(-c2cc(C(=O)O)c3ccccc3n2)cc1 [Compound 9] | – |
| 64% | – | – | – | COC(=O)c1cc(-c2ccncc2)nc2ccccc12 [Compound 8] | – |
| 17% | – | – | – | COCCNC(=O)c1cc(-c2ccc(NC(C)=O)cc2)nc2ccccc12 [Compound 6] | – |
| – | – | – | – | CC(=O)Nc1ccc(-c2cc(C(C)N3CCOCC3)c3ccccc3n2)cc1 (centres unmarked) [Compound 112, N-(4-(4-(1-Morpholinoethyl)quinolin-2-yl)phenyl)acetamide] | inhibition at 12.5 µM [1]: 27% |
| – | 18 nM | 47 nM | – | CC(=O)Nc1ccc(-c2cc(CNCCO)c3ccccc3n2)cc1 [Compound 231, N-(4-(4-(((2-hydroxyethyl)amino)methyl)quinolin-2-yl)phenyl)acetamide] | – |
| 45% | – | – | – | CC(=O)Nc1ccc(-c2cc(C(=O)NCCN(C)C)c3ccccc3n2)cc1 [Compound 4, 2-(4-Acetamidophenyl)-N-(2-(dimethylamino)ethyl)quinoline-4-carboxamide] | – |
| – | 40 nM | 81 nM | – | CC(=O)Nc1ccc(-c2cc(CN3CCOCC3)c3ccc(F)cc3n2)cc1F [Compound 250, N-(2-fluoro-4-(7-fluoro-4-(morpholinomethyl)quinolin-2-yl)phenyl)acetamide] | – |
| – | – | 11 nM | **** | CNCCNCc1cc(-c2ccc(NC(C)=O)cc2)nc2ccccc12 [Compound 241, N-(4-(4-(((2-(methylamino)ethyl)amino)methyl)quinolin-2-yl)phenyl)acetamide] | – |
| – | – | 54 nM | **** | CC(=O)Nc1ccc(-c2cc(CN3CCN(C(=O)OC(C)(C)C)CC3)c3ccccc3n2)cc1 [Compound 244, tert-butyl 4-((2-(4-acetamidophenyl)quinolin-4-yl)methyl)piperazine-1-carboxylate] | – |
| – | 4 nM | 34 nM | – | CC(=O)Nc1ccc(-c2cc(CN3CCOCC3)c3ccccc3n2)cc1F [Compound 214, N-(2-fluoro-4-(4-(morpholinomethyl)quinolin-2-yl)phenyl)acetamide] | – |
| – | 133 nM | 80 nM | – | CC(=O)Nc1ccc(-c2cc(CN3CCOCC3)c3ccccc3n2)cc1C#N [Compound 218, N-(2-cyano-4-(4-(morpholinomethyl)quinolin-2-yl)phenyl)acetamide] | – |
| – | – | – | **** | CC(=O)Nc1ccc(-c2cc(CN3CCN(C(C)=O)CC3)c3ccccc3n2)cc1 [Compound 246, N-(4-(4-((4-acetylpiperazin-1-yl)methyl)quinolin-2-yl)phenyl)acetamide] | Fluorescent Binding Assay, Kd (nM) (ctRAGE): *** |
| – | 10 nM | 122 nM | – | COc1ccc2c(CN3CCOCC3)cc(-c3ccc(NC(C)=O)cc3)nc2c1 [Compound 228, N-(4-(7-methoxy-4-(morpholinomethyl)quinolin-2-yl)phenyl)acetamide] | – |
| – | – | – | **** | CC(=O)Nc1ccc(-c2cc(CN(C)CCO)c3ccccc3n2)cc1 [Compound 232, N-(4-(4-(((2-hydroxyethyl)(methyl)amino)methyl)quinolin-2-yl)phenyl)acetamide] | Fluorescent Binding Assay, Kd (nM) (ctRAGE): *** |
| – | 0.08 nM | 16 nM | – | CCCCN(C)Cc1cc(-c2ccc(NC(C)=O)cc2)nc2ccccc12 [Compound 238, N-(4-(4-((butyl(methyl)amino)methyl)quinolin-2-yl)phenyl)acetamide] | – |
| – | – | 89 nM | **** | O=C(CO)Nc1ccc(-c2cc(CN3CCOCC3)c3ccccc3n2)cc1 [Compound 219, 2-hydroxy-N-(4-(4-(morpholinomethyl)quinolin-2-yl)phenyl)acetamide] | – |
| – | – | 137 nM | **** | CC(=O)Nc1ccc(-c2cc(CN3CCOCC3)c3ccc(Cl)cc3n2)cc1C#N [Compound 255, N-(4-(7-chloro-4-(morpholinomethyl)quinolin-2-yl)-2-cyanophenyl)acetamide] | – |
| – | – | – | – | CC(=O)Nc1ccc(-c2cc(CN3CCOCC3)c3cccc(Cl)c3n2)cc1 [Compound 110, N-(4-(8-Chloro-4-(morpholinomethyl)quinolin-2-yl)phenyl)acetamide] | inhibition at 12.5 µM [1]: 20% |
| – | – | 5800 nM | **** | COc1ccc2c(CN3CCOCC3)cc(-c3ccc(NC(C)=O)c(F)c3)nc2c1 [Compound 256, N-(2-fluoro-4-(7-methoxy-4-(morpholinomethyl)quinolin-2-yl)phenyl)acetamide] | – |
| – | 44 nM | 8 nM | – | CNCCN(C)Cc1cc(-c2ccc(NC(C)=O)cc2)nc2ccccc12 [Compound 242, N-(4-(4-((methyl(2-(methylamino)ethyl)amino)methyl)quinolin-2-yl)phenyl)acetamide] | – |
| – | 1200 nM | 1300 nM | – | CC(=O)Nc1ccc(-c2cc(CN3CCOCC3)c3ccc(Cl)cc3n2)cc1F [Compound 253, N-(4-(7-chloro-4-(morpholinomethyl)quinolin-2-yl)-2-fluorophenyl)acetamide] | – |
| – | 0.2 nM | 3 nM | – | CC(=O)Nc1ccc(-c2cc(CN3CCOCC3)c3ccc(C#N)cc3n2)cc1 [Compound 229, N-(4-(7-cyano-4-(morpholinomethyl)quinolin-2-yl)phenyl)acetamide] | – |
| – | – | – | **** | CC(=O)Nc1ccc(-c2cc(CCCN3CCOCC3)c3ccccc3n2)cc1 [Compound 243, N-(4-(4-(3-morpholinopropyl)quinolin-2-yl)phenyl)acetamide] | Fluorescent Binding Assay, Kd (nM) (ctRAGE): *** |
| – | – | – | **** | COc1cc(-c2cc(CN3CCOCC3)c3ccccc3n2)ccc1NC(C)=O [Compound 216, N-(2-methoxy-4-(4-(morpholinomethyl)quinolin-2-yl)phenyl)acetamide] | Fluorescent Binding Assay, Kd (nM) (ctRAGE): *** |
